According to patent US20240109934A1, “ANTIBIOTICS WITH IMPROVED DRUG RESISTANCE PROFILE” (priority 2021, published 2024):
In brackets after ≈: the same amount, converted by molar mass. Entries after “also recorded” stand apart in the source; their conditions may differ. Where two headings read alike, the source gives them in different places.

Columns and labels:
[1] = Pharmacokinetic assessment in mice; type: in vivo, C57BL/6 mice
Description: FIG. 3. A). Pharmacokinetic analysis of fusidic acid and FA-CP. […] The data are illustrated as the mean and represent the average of three independent experiments. The pharmacokinetic parameters illustrated above were calculated with a one-compartment model using a non-linear regression program (Phoenix WinNonlin Version 8.1, Certara USA Inc. Princeton NJ 08540 USA). B). S. aureus ATCC 29213 neutropenic thigh infection burden study. CD-1 mice were first rendered neutropenic with cyclophosphamide. Mice were injected on (Day-4 to Day-2) with 150 mg/kg and on (Day-1) with 100 mg/kg of cyclophosphamide, respectively. […] C). S. aureus (FA-32×-B) neutropenic thigh infection study. CD-1 mice were first rendered neutropenic with cyclophosphamide as described above. […] Drugs were formulated with 5% DMSO, 10% Tween 20, 85% PBS immediately before injection. The data shown as means±s.d. and statistical significance was determined by one-way ANOVA with Tukey's multiple comparisons. NS indicates not significant (P>0.05), **P<0.01, ****P<0.0001.
Pharmacokinetic Assessment of sodium fusidate and FA-CP (25). […] The compounds were formulated in 5% DMSO, 10% Tween 20, and 85% PBS. Mice were treated with sodium fusidate or FA-CP (25) (50 mg/kg) via intraperitoneal injection with three mice per time point (15, 30, 45, 60, 120, and 240 min). At specific time points, mice were sacrificed, blood was collected and centrifuged, and the serum was frozen at −80° C. until analysis. The proteins in a 10 μL aliquot of serum were precipitated by the addition of 50 μL acetonitrile with the addition of 10 μL of 1.6 ug/mL internal standard (sodium fusidate was the internal standard when measuring FA-CP (25) and FA-CP (25) was the internal standard when measuring sodium fusidate). The sample was then vortexed and centrifuged to remove the proteins. Supernatants were analyzed with the QTRAP 5500 LC/MS/MS system (Sciex) in the Metabolomics Laboratory of the Roy J. Carver Biotechnology center, University of Illinois at Urbana-Champaign. Software Analyst 1.6.2 was used for data acquisition and analysis. The 1200 Series HPLC System (Agilent Technologies) includes a degasser, an autosampler and a binary pump. The liquid chromatography separation was performed on an Agilent Zorbax SB-Aq column (4.6 mm×50 mm; 5 μm) with mobile phase A (0.1% formic acid in water) and mobile phase B (0.1% formic acid in acetonitrile). The flow rate was 0.3 mL/min. The linear gradient was as follows: 0-1 min: 95% A; 8-13 min: 0% A; 8.1-18.5 min: 95% A. The autosampler was set at 10° C. The injection volume was 5 μL. Mass spectra were acquired under negative electrospray ionization with a voltage of −4,500 V. The source temperature was 450° C. The curtain gas, ion source gas 1 and ion source gas 2 were 32, 60 and 60 psi, respectively. […] The limit of quantitation of (S/N=10) was 1 nM. Pharmacokinetic parameters were calculated with a one-compartment model using a nonlinear regression program (Phoenix WinNonlin Version 8.1; Certara USA).

[2] = Mouse liver microsome stability assay; type: in vitro ADME
Description: Mouse Liver Microsome Stability Assay. A mixture of PBS (pH 7.4), NADPH regenerating system solution A (Corning Life Sciences), and NADPH regenerating system solution B (Corning Life Sciences) was incubated at 37° C. in a shaking incubator for 5 min. Next, compound was added in DMSO (final concentration 50 μM, 0.5% DMSO) before ice-cold mouse liver microsomes (Thermo Fisher, male CD-1 mice, pooled) were added (final protein concentration of 1 mg/mL). An aliquot was immediately removed, quenched with an equal volume of 100 μM internal standard and centrifuged at 13,000 rcf for 3 min. The reactions were incubated at 37° C. in a shaking incubator for 3 h. A second aliquot was removed and quenched. Samples were analyzed with the 5500 QTRAP LC/MS/MS system (Sciex, Framingham, MA) in Metabolomics Lab of Roy J. Carver Biotechnology Center, University of Illinois at Urbana-Champaign. Software Analyst 1.6.2 was used for data acquisition and analysis. The 1200 series HPLC system (Agilent Technologies, Santa Clara, CA) includes a degasser, an autosampler, and a binary pump. The LC separation was performed on an Agilent Sb-Aq column (4.6×50 mm, […]) with mobile phase A (0.1% formic acid in water) and mobile phase B (0.1% formic acid in acetonitrile). The flow rate was 0.3 mL/min. The linear gradient was as follows: 0-3 min, 100% A; 10-16 min, 5% A; 16.5-22 min, 100% A. The autosampler was set at 10° C. The injection volume was 1 μL. Mass spectra were acquired under both positive (ion spray voltage was +5500 V) and negative (ion spray voltage was −4500 V) electrospray ionization (ESI). The source temperature was 450° C. The curtain gas, ion source gas 1, and ion source gas 2 were 33, 65, and 60 psi, respectively. Multiple reaction monitoring (MRM) was used for quantitation.

[3] = tested on: multidrug-resistant clinical isolates of E. faecium; assay: MIC against multidrug-resistant clinical isolates of E. faecium; type: cell-based; conditions: for Cross-resistance with vancomycin: E. faecium clinical isolates; for MIC: Enterococcus faecium
E. faecium ATCC 19434 = assay: MIC against sensitive E. faecium strain; type: cell-based; conditions: Enterococcus faecium, ATCC19434; sensitive strain E. faecium ATCC 19434
S. aureus (FA-32×-B) = assay: Neutropenic thigh infection burden study, FA-resistant strain; type: in vivo; conditions: neutropenic CD-1 mice, FA-resistant strain (P406L), 50 mg/kg IP at 1, 2, 3 h, burden at 8 h
S. aureus ATCC 29213 = assay: MIC by micro-dilution broth method (CLSI); type: cell-based; conditions: for MIC: Staphylococcus aureus
[4] = mice, 50 mg/kg intraperitoneal, serum, one-compartment model
[5] = female, C57BL/6, mouse, in vivo, ip, 50 mg/kg

Which results are given for CC(=O)O[C@H]1C[C@@]2(C)[C@@H](C[C@@H](O)[C@H]3[C@@]4(C)CC[C@@H](O)[C@@H](C)[C@@H]4CC[C@@]32C)/C1=C(\CCC=C(C)C)C(=O)O [FA, Fusidic acid]?
AUC ([1]; female, C57BL/6, mouse, in vivo, ip, mice, 50 mg/kg intraperitoneal, serum, one-compartment model, read-out: AUC (converted)): 9360 ng·h/mL; Cmax ([1]; female, C57BL/6, mouse, in vivo, ip, mice, 50 mg/kg intraperitoneal, serum, one-compartment model, read-out: Cmax): 11100 ng/mL; Tmax ([1]; female, C57BL/6, mouse, in vivo, ip, mice, 50 mg/kg intraperitoneal, serum, one-compartment model, read-out: Tmax (converted)): 5.4 min; CL_F [1, 4]: 89.0 mL/min/kg; K10_HL [1, 4]: 31.2 min; Metabolic Stability in Mouse Liver Microsomes (percent remaining) ([2]; male, CD-1, mouse, microsomes, 3 h, 50 μM, pH 7.4): 82 ± 0.8%^; Cross-resistance with vancomycin [3]: no cross-resistance with vancomycin; MIC ([3]; E. faecium AR0572 (CDC), read-out: MIC): 4 µg/mL (≈ 7.74 µM); MIC ([3]; E. faecium AR0574 (CDC), read-out: MIC): 2 µg/mL (≈ 3.87 µM); MIC ([3]; E. faecium AR0575 (CDC), read-out: MIC): 2 µg/mL (≈ 3.87 µM); MIC ([3]; E. faecium AR0576 (CDC), read-out: MIC): 4 µg/mL (≈ 7.74 µM); MIC ([3]; E. faecium AR0578 (CDC), read-out: MIC): 2 µg/mL (≈ 3.87 µM); MIC ([3]; E. faecium AR0579 (CDC), read-out: MIC): 1 µg/mL (≈ 1.94 µM); MIC (E. faecium ATCC 19434): 2 µg/mL (≈ 3.87 µM); Bacterial burden in thigh (S. aureus (FA-32×-B)): no efficacy; MIC (S. aureus ATCC 29213; ATCC29213, WT S. aureus ATCC 29213, n = 3, read-out: MIC Without Human Serum): 0.125 µg/mL (≈ 0.242 µM)

Which results are given for CC(=O)O[C@H]1C[C@@]2(C)[C@@H](C[C@@H](O)[C@H]3[C@@]4(C)CC[C@@H](O)[C@@H](C)[C@@H]4CC[C@@]32C)/C1=C(\CCC=C1CCCC1)C(=O)O [FA-CP, (Z)-2-((3R,4S,5S,8S,9S,10S,11R,13R,14S,16S)-16-acetoxy-3,11-dihydroxy-4,8,10,14-tetramethylhexadecahydro-17H-cyclopenta[a]phenanthren-17-ylidene)-5-cyclopentylidenepentanoic acid]?
AUC [1, 5]: 11700 ng·h/mL; CL_F [1, 5]: 71.3 mL/min/kg; Cmax [1, 5]: 9760 ng/mL; K10_HL [1, 5]: 19.0 min; Tmax [1, 5]: 26.4 min; Metabolic Stability in Mouse Liver Microsomes (percent remaining) ([2]; 3 h at 37° C., LC-MS/MS, ± SEM of 3 biological replicates): 78 ± 4%; Cross-resistance with vancomycin [3]: no cross-resistance with vancomycin; MIC ([3]; E. faecium AR0572 (CDC)): 4 µg/mL (≈ 7.37 µM); MIC ([3]; E. faecium AR0574 (CDC)): 2 µg/mL (≈ 3.68 µM); MIC ([3]; E. faecium AR0575 (CDC)): 2 µg/mL (≈ 3.68 µM); MIC ([3]; E. faecium AR0576 (CDC)): 4 µg/mL (≈ 7.37 µM); MIC ([3]; E. faecium AR0578 (CDC)): 2 µg/mL (≈ 3.68 µM); MIC ([3]; E. faecium AR0579 (CDC)): 1 µg/mL (≈ 1.84 µM); MIC (E. faecium ATCC 19434): 2 µg/mL (≈ 3.68 µM); Bacterial burden in thigh (S. aureus (FA-32×-B)): reductions in bacterial burden; also recorded: in vivo efficacy; Antibacterial activity relative to FA (S. aureus ATCC 29213; S. aureus ATCC 29213 MIC): equipotent activity to FA; MIC (S. aureus ATCC 29213; ATCC29213, read-out: MIC Without Human Serum): 0.125 µg/mL (≈ 0.23 µM)
